Columns and labels:
human H1 receptor = target: T1, human H1 receptor (Homo sapiens, UniProt P35367); assay: Histamine H1 receptor binding, displacement of [3H]-pyrilamine; settings: 1 nM [3H]-pyrilamine; membranes of recombinant CHO-K1 cells expressing human H1 receptor; read-out: H1 pKi/[1328_S] (converted)
T1 construct: purchased Euroscreen SA, Brussels, Belgium ES-390-M; host or cells: recombinant CHO-K1 cells (membranes)

CCR3 = target: T2, CCR3 (Homo sapiens, UniProt P51677); assay: Human eosinophil chemotaxis (eotaxin mediated); format: cell-based; settings: read-out: % inhibition at 1 μM, 1 μM compound, human eosinophils
T2 construct: Human eosinophils were isolated from EDTA anticoagulated peripheral blood; endogenous in cells; host or cells: human peripheral blood eosinophils
T2 sequence (P51677 1-355): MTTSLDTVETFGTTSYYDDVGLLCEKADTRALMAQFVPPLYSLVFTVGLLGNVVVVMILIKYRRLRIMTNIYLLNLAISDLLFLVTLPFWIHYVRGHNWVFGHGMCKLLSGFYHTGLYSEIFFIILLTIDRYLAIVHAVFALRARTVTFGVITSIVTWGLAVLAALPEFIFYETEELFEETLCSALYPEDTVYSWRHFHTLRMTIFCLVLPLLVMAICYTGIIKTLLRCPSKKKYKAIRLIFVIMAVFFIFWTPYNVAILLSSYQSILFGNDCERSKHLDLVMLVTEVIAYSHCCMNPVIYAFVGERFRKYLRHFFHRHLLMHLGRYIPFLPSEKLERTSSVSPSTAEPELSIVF
Method: Human Eosinophil Chemotaxis
Human eosinophils were isolated from EDTA anticoagulated peripheral blood as previously described (Hansel et al., J. Immunol. Methods, 1991, 145, 105-110). The cells were resuspended at 10×10^6 mL-1 in RPMI containing 200 IU/mL penicillin, 200 μg/mL streptomycin sulfate and supplemented with 10% HIFCS, at room temperature.
Eosinophils (700 μl) were pre-incubated for 15 mins at 37° C. with 7 μl of either vehicle or compound (100× required final concentration in 10% DMSO). […] The filter was then placed over the wells and 25 μl of eosinophil suspension were added to the top of the filter. The plate was incubated for 1 hr at 37° C. in a humidified incubator with a 95% air/5% CO2, atmosphere to allow chemotaxis.
The medium, containing cells that had not migrated, was carefully aspirated from above the filter and discarded. The filter was washed once with phosphate buffered saline (PBS) containing 5 mM EDTA to remove any adherent cells. Cells that had migrated through the filter were pelleted by centrifugation (300×g for 5 mins at room temperature) and the filter removed and the supernatant transferred to each well of a 96-well plate (Costar). The pelleted cells were lysed by the addition of 28 μl of PBS containing 0.5% Triton ×100 followed by two cycles of freeze/thawing. The cell lysate was then added to the supernatant. The number of eosinophils migrating was quantified according to the method of Strath et al., J. Immunol. Methods, 1985, 83, 209 by measuring eosinophil peroxidase activity in the supernatant.

T1 sequence (P35367 whole entry): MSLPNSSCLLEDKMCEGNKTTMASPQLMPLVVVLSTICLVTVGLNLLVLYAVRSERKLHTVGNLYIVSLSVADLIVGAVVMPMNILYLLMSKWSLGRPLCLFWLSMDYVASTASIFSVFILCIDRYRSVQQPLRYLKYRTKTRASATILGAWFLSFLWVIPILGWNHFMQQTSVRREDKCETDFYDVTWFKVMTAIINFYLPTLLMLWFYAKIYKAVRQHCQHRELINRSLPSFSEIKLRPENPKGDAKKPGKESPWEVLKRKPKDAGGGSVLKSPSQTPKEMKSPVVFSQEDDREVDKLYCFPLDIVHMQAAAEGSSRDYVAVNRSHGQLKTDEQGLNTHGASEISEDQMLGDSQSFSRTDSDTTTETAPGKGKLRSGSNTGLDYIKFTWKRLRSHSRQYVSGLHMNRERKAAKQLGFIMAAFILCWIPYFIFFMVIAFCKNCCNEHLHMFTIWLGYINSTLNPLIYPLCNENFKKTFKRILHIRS

Structure (SMILES)	Ki (human H1 receptor) [nM]	inhibition at 1 µM (CCR3) [%]
COc1ccccc1C(C(=O)O)N1CCC(CN2CCC(Oc3ccc(Cl)c(C)c3Cl)CC2)CC1 (stereo not drawn) [Example 7, 4-[[4-(2,4-Dichloro-3-methylphenoxy)-1-piperidinyl]methyl]-α-(2-methoxyphenyl)-1-piperidineacetic acid]	79.4	
Cc1ccccc1C(C(=O)O)N1CCC(CN2CCC(Oc3ccc(Cl)c(C)c3Cl)CC2)CC1 (stereo not drawn) [Example 8, 4-[[4-(2,4-Dichloro-3-methylphenoxy)-1-piperidinyl]methyl]-α-(2-methylphenyl)-1-piperidineacetic acid]	50.1	
COc1ncc(C(C(=O)O)N2CCC(CN3CCC(Oc4ccc(Cl)c(Cl)c4)CC3)CC2)c(OC)n1 (stereo not drawn) [Example 12, α-[4-[[4-(3,4-Dichlorophenoxy)-1-piperidinyl]methyl]-1-piperidinyl]-2,4-dimethoxy-5-pyrimidineacetic acid]	200	
Cc1c(Cl)ccc(OC2CCN(CC3CCN(C(C(=O)O)c4ccccc4)CC3)CC2)c1Cl (stereo not drawn) [Example 2, 4-[[4-(2,4-Dichloro-3-methylphenoxy)-1-piperidinyl]methyl]-α-phenyl-1-piperidineacetic acid]	31.6	
COc1ccccc1C(C(=O)O)N1CCC(O)(CN2CCC(Oc3ccc(Cl)c(Cl)c3)CC2)CC1 (stereo not drawn) [Example 19, 4-[[4-(3,4-Dichlorophenoxy)-1-piperidinyl]methyl]-4-hydroxy-α-(2-methoxyphenyl)-1-piperidineacetic acid]	7.94	
Cc1cc(Cl)ccc1OC1CCN(CC2CCN(C(C(=O)O)c3ccccc3C)CC2)CC1 (stereo not drawn) [Example 11, 4-[[4-(4-Chloro-2-methylphenoxy)-1-piperidinyl]methyl]-α-(2-methylphenyl)-1-piperidineacetic acid]	158	
COC(=O)c1ccccc1CN1CCC(CN2CCC(Oc3ccc(Cl)c(Cl)c3)CC2)CC1 [Example 42, methyl 2-[(4-{[4-(3,4-dichlorophenoxy)piperidin-1-yl]methyl}piperidin-1-yl)methyl]benzoate]	10	
COC(=O)CN1CCC(CN2CCC(Oc3ccc(Cl)cc3C)CC2)CC1 [Example 69, Methyl-4-[[4-(4-chloro-2-methylphenoxy)-1-piperidinyl]methyl]-1-piperidineacetate]	126	
Cc1c(Cl)ccc(OC2CCN(CC3CCN(CC(=O)O)CC3)CC2)c1Cl [Example 78, 4-[[4-(2,4-Dichloro-3-methylphenoxy)-1-piperidinyl]methyl]-1-piperidineacetic acid]	200	
O=S(=O)(NCCCN1CCC(CN2CCC(Oc3ccc(Cl)c(Cl)c3)CC2)CC1)C(F)(F)F [Example 103, N-[3-[4-[[4-(3,4-Dichlorophenoxy)-1-piperidinyl]methyl]-1-piperidinyl]propyl]-1,1,1-trifluoro-methanesulfonamide]	20	
O=C(O)CN1CCC(CN2CCC(Oc3ccc(Cl)c(Cl)c3)CC2)CC1 [Example 77, 4-[[4-(3,4-dichlorophenoxy)-1-piperidinyl]methyl]-1-piperidineacetic acid]	126	
O=C(O)C(c1ccccc1)N1CCC(O)(CN2CCC(Oc3ccc(Cl)c(Cl)c3)CC2)CC1 (stereo not drawn) [Example 17, 4-[[4-(3,4-Dichlorophenoxy)-1-piperidinyl]methyl]-4-hydroxy-α-phenyl-1-piperidineacetic acid]	10	
O=C(O)CN1CCC(O)(CN2CCC(Oc3ccc(Cl)c(Cl)c3)CC2)CC1 [Example 82, 4-[[4-(3,4-Dichlorophenoxy)-1-piperidinyl]methyl]-4-hydroxy-1-piperidineacetic acid]	100	
COc1ccccc1C(C(=O)O)N1CCC(CN2CCC(Oc3ccc(Cl)cc3C)CC2)CC1 (stereo not drawn) [Example 10, 4-[[4-(4-Chloro-2-methylphenoxy)-1-piperidinyl]methyl]-α-(2-methoxyphenyl)-1-piperidineacetic acid]	251	108
Clc1ccc(OC2CCN(CC3CCN(Cc4nn[nH]n4)CC3)CC2)cc1Cl [Example 100, 4-(3,4-dichlorophenoxy)-1-[[1-(2H-tetrazol-5-ylmethyl)-4-piperidinyl]methyl]-piperidine]	39.8	

Results, then the compound that gave them:

Ki (human H1 receptor) [nM]	inhibition at 1 µM (CCR3) [%]	Structure (SMILES)
200		C[C@@H](C(=O)O)N1CCC(CN2CCC(Oc3ccc(Cl)c(Cl)c3)CC2)CC1 [Example 84, (2S)-2-(4-{[4-(3,4-Dichlorophenoxy)piperidin-1-yl]methyl}piperidin-1-yl)propanoic acid]
15.8		Cc1ccc(C(C(=O)O)N2CCC(O)(CN3CCC(Oc4ccc(Cl)c(Cl)c4)CC3)CC2)cc1 (stereo not drawn) [Example 18, 4-[[4-(3,4-Dichlorophenoxy)-1-piperidinyl]methyl]-4-hydroxy-α-(4-methylphenyl)-1-piperidineacetic acid]
25.1	87	Cc1ccc(C(C(=O)O)N2CCC(CN3CCC(Oc4ccc(Cl)cc4C)CC3)CC2)cc1 (stereo not drawn) [Example 13, 4-[[4-(4-Chloro-2-methylphenoxy)-1-piperidinyl]methyl]-α-(4-methylphenyl)-1-piperidineacetic acid]
25.1		CC(=O)Nc1cccc(C(C(=O)O)N2CCC(CN3CCC(Oc4ccc(Cl)c(Cl)c4)CC3)CC2)c1 (stereo not drawn) [Example 14, α-[3-(Acetylamino)phenyl]-4-[[4-(3,4-dichlorophenoxy)-1-piperidinyl]methyl]-1-piperidineacetic acid]
25.1		Cc1c(Cl)ccc(OC2CCN(CC3CCN(C(C(=O)O)c4ccc(F)cc4)CC3)CC2)c1Cl (stereo not drawn) [Example 15, 4-[[4-(2,4-Dichloro-3-methylphenoxy)-1-piperidinyl]methyl]-α-(4-fluorophenyl)-1-piperidineacetic acid]
20		Cc1ccc(C(C(=O)O)N2CCC(CN3CCC(Oc4ccc(Cl)c(Cl)c4)CC3)CC2)cc1 (stereo not drawn) [Example 6, 4-[[4-(3,4-Dichlorophenoxy)-1-piperidinyl]methyl]-α-(4-methylphenyl)-1-piperidineacetic acid]
39.8		O=C(O)C(c1ccc(F)cc1)N1CCC(CN2CCC(Oc3ccc(Cl)c(Cl)c3)CC2)CC1 (stereo not drawn) [Example 3, 4-[[4-(3,4-Dichlorophenoxy)-1-piperidinyl]methyl]-α-(4-fluorophenyl)-1-piperidineacetic acid]
100	90	COc1ccccc1C(C(=O)O)N1CCC(CN2CCC(Oc3ccc(Cl)c(Cl)c3)CC2)CC1 (stereo not drawn) [Example 4, 4-[[4-(3,4-Dichlorophenoxy)-1-piperidinyl]methyl]-α-(2-methoxyphenyl)-1-piperidineacetic acid]
31.6		Cc1ccc(C(C(=O)O)N2CCC(CN3CCC(Oc4ccc(Cl)c(C)c4Cl)CC3)CC2)cc1 (stereo not drawn) [Example 9, 4-[[4-(2,4-Dichloro-3-methylphenoxy)-1-piperidinyl]methyl]-α-(4-methylphenyl)-1-piperidineacetic acid]
79.4		Cc1ccccc1C(C(=O)O)N1CCC(CN2CCC(Oc3ccc(Cl)c(Cl)c3)CC2)CC1 (stereo not drawn) [Example 5, 4-[[4-(3,4-Dichlorophenoxy)-1-piperidinyl]methyl]-α-(2-methylphenyl)-1-piperidineacetic acid]

From patent US20060040984A1, “Novel piperidine derivatives for use in the treatment of chemokine medicated disease states” (priority 2002, published 2006)
